In experiment [1] the test system is HepG2. Kind of experiment: Antiproliferative activity against human HepG2 cells at 4 uM after 48 hrs by MTT assay relative to control. The format is functional.
Experiment [2] deals with HepG2. Kind of experiment: Antiproliferative activity against human HepG2 cells at 5 uM after 48 hrs by MTT assay relative to control. The experiment is classed as functional. (In general: Tetrazolium dyes change colour on reduction, which living cells bring about.)
Experiment [3] deals with NAD-dependent protein deacylase sirtuin-5, mitochondrial (Homo sapiens) (UniProt Q9NXA8). Kind of experiment: Inhibition of SIRT5 (unknown origin) at 100 uM relative to control.
NAD-dependent protein deacylase sirtuin-5, mitochondrial (Homo sapiens), sequence (Q9NXA8 37-310 limits assumed): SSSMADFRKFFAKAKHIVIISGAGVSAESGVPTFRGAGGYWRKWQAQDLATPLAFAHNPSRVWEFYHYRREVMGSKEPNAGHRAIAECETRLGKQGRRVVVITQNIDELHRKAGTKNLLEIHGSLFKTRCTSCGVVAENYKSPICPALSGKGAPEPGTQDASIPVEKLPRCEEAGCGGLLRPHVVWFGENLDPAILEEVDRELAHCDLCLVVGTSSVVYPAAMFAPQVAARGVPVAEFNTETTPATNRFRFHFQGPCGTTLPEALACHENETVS
For experiment [4] the target is unchanged. Kind of experiment: Inhibition of SIRT5 (unknown origin) at 30 uM relative to control.
For another experiment, the system named is SMMC-7721. Kind of experiment: Antiproliferative activity against human SMMC7721 cells after 48 hrs by MTT assay. The format is functional, cell-based. Particulars: SMMC-7721, 48 h.
In experiment [5] the test system is Lewis lung carcinoma cell line. Kind of experiment: Antitumor activity against mouse LLC cells implanted in mouse assessed as tumor growth inhibition at 7.5 mg/kg, ip qd treated for 7 consecutive days starting from 24 hrs post tumor inoculum relative to control. The format is functional. The settings on record: read-out: TGI.
Another experiment has as its system HGC-27. As to the kind of experiment: Cytotoxicity against human HGC27 cells assessed as reduction in cell viability after 48 hrs by MTT assay. The settings on record: HGC-27, 48 h. The format is functional, cell-based.
The next experiment has as its system CCRF S-180. As to the kind of experiment: Antitumor activity against mouse S180 cells implanted in mouse assessed as tumor growth inhibition at 7.5 mg/kg, ip qd treated for 7 consecutive days starting from 24 hrs post tumor inoculum relative to control. The format is functional. Particulars: CCRF S-180, ip, read-out: TGI.

As a reminder, the inhibition is the drop in the measured response relative to a control, in per cent. One may read the IC50 as the concentration that gives 50% inhibition.

Turning to `CCCN(Cc1ccc(C(=O)NO)cc1)C(=O)c1cc2c([nH]c3ccccc32)c(-c2ccc(OC)cc2)n1`, the Activity in the experiment on HepG2 [1] is 61.8%; in the experiment on HepG2 [2], 34.5%.
On to `O=C(NCCn1c2ccccc2c2ccncc21)Nc1ccc(C(=O)O)cc1`, for which the inhibition in experiment [3] turned out to be 52%; in experiment [4], 35%.
`Cc1nc(C(=O)NCCCCCNC(=O)c2ccccc2O)cc2c1[nH]c1ccccc12` displayed an IC50 in the experiment on SMMC-7721 of 6.97 µM.
As to `COc1cc(-c2nc(Cn3cc(CN4C(=O)c5ccc(C)cc5C4=O)nn3)cc3c2[nH]c2ccccc23)cc(OC)c1OC`, the inhibition in vivo at 7.5 mg/kg was found to be 46.9% in experiment [5] and 40% in the experiment with CCRF S-180. In addition, in the experiment with HGC-27, the IC50 is 5.44 µM.

The record behind these values is ChEMBL document CHEMBL4325913, “Norharmane as a potential chemical entity for development of anticancer drugs” (Eur J Med Chem, 2019).
